Data taken from US20160264935A1, “TRANSFORMED HUMAN PLURIPOTENT STEM CELLS AND ASSOCIATED METHODS” (McMaster University, priority 2009, published 2016).
Structures can show the parent of a compound that is named as a salt.

Legend:
[1] = tested on: transformed stem cells (Oct4-GFP); assay: High Content Screening of Oct4-GFP expression (ArrayScan HCS reader); assay type: cell-based, human
Description: At day 2 and 3 BMP4 was added to each of the treated wells at various concentrations. On day 4 microtiter plates containing treated transformed stem cells were imaged using the cellomics ArrayScan HCS reader (Thermofisher). Oct4-GFP expression was shown in green while cell nuclei are shown in blue (Hoescht 33342). A) No BMP untreated control.
Cells were grown as described in FIG. 9 with the exception of the addition of BMP4 which was replaced by DMSO at multiple concentrations as described in the Figure legends. DMSO is a chemical compound used in drug studies as a solvent which is known to induce stem cell differentiation. On day 5, after cell seeding and culture, microtiter plates were imaged using the ArrayScan HCS reader (Thermofisher). […] D) Cell numbers were quantified based on the automated detection and segregation of cells labelled by the nuclear dye Hoescht. […] All images were analyzed using the Cellomics software.
Transformed stem cells were seeded as single cells and grown in culture using standard stem cell culture conditions for 4 days. […] On day 4 microtiter plates containing treated transformed stem cells were imaged using the cellomics ArrayScan HCS reader (Thermofisher). […]
Due to image analysis limitations similar data could not be obtained when normal cells were used for the assays. […] All images were analyzed using the Cellomics software.

[2] = tested on: t-hPSCs that contain an Oct4-GFP reporter gene; assay: Screen of 300 compounds for inducers of stem cell differentiation (Oct4-GFP/Hoechst ratio); assay type: cell-based, human; details: 72 hours after exposure; fluorescence plate reader
Text: FIG. A: identification of inducers of stem cell differentiation. 300 compounds were screened to detect the fluorescence emitted from the Oct4-GFP reporter expressed in transformed cells and normalized to the relative cell nuclear number as defined by Hoechst staining. GFP/Hoechst ratios below zero, the threshold defined by BMP4 (a known stem cell differentiator), are considered potent inducers of stem cells differentiation. FIGS. B-C: the frequency of Oct4+ human iPS cells measured using flow cytometry following 7 days of treatment with Mefloquine (MEFLO) or thioridazine (THIO) compared to culture media (MEFCM) and culture media supplemented with DMSO (DMSO). […] FIGS. 1D-E: Measurements of cell viability using trypan blue on human mobilized peripheral blood treated with mefloquine or thioridazine for 5 days. […]
Plates containing the cells were analyzed 72 hours after exposure to the compounds using a fluorescence plate reader capable of detecting the fluorescence emitted from the Oct4-GFP reporter expressed in transformed cells and normalized to the relative cell nuclear number as defined by Hoechst staining. […]

[3] = tested on: human mobilized peripheral blood; assay: Cell viability by trypan blue exclusion; assay type: cell-based; details: 0.1-10 μM, 5 days
Description: FIGS. 1D-E: Measurements of cell viability using trypan blue on human mobilized peripheral blood treated with mefloquine or thioridazine for 5 days. […] In order to further investigate the compounds identified by the screen, mefloquine and thioridazine were used to treat human mobilized peripheral blood for 5 days. Cell viability was measured using trypan blue exclusion.

human iPS cells = assay: Frequency of Oct4+ cells by flow cytometry; assay type: cell-based; details: 7 days of treatment; compared to MEFCM and DMSO
Text: FIG. A: identification of inducers of stem cell differentiation. 300 compounds were screened to detect the fluorescence emitted from the Oct4-GFP reporter expressed in transformed cells and normalized to the relative cell nuclear number as defined by Hoechst staining. GFP/Hoechst ratios below zero, the threshold defined by BMP4 (a known stem cell differentiator), are considered potent inducers of stem cells differentiation. FIGS. B-C: the frequency of Oct4+ human iPS cells measured using flow cytometry following 7 days of treatment with Mefloquine (MEFLO) or thioridazine (THIO) compared to culture media (MEFCM) and culture media supplemented with DMSO (DMSO). […] FIGS. 1D-E: Measurements of cell viability using trypan blue on human mobilized peripheral blood treated with mefloquine or thioridazine for 5 days. […] Mefloquine (MEFLO) and thioridazine (THIO) were then tested in human iPS cells. Following 7 days of treatment, the frequency of Oct4+ cells were measured using flow cytometry and compared to culture media (MEFCM) and culture media supplemented with DMSO (DMSO) as a vehicle to augment compound solubility.

[4] = tested on: transformed pluripotent stem cells with EOS Oct4-GFP reporter; assay: High throughput plate reader screen for loss of pluripotency (Oct4-Alexa 647 antibody and GFP); assay type: cell-based, human; details: 1, 10, 100 ng/mL BMP4 for 4 days, n=3
Description: Transformed pluripotent stem cells were passaged as single cells using Trypsin and seeded at 1000 cells per well into 96 well optical imaging plates coated with Matrigel ® containing 100 ul mouse embryonic fibroblast conditioned media (MEF-CM). Plates were incubated at 37 degrees for 24 Hr before treatment with bone morphogenic protein 4 (BMP4) commenced. Cells were treated with either 1 ng/mL, 10 ng/mL, 100 ng/mL, or 0 ng/mL BMP4 for 4 days (n=3). After 4 days cells were fixed with 2% paraformaldehyde and stained with Oct4-Alexa 647 antibody. Cells were loaded into a plate reader and measured at excitation emission pairs of 650/665 and 488/520 nm to measure Oct4-Alexa 647 antibody (top graph) and GFP (bottom graph) respectively. Pluripotency (measured by the loss of OCT4 and GFP expression) decreased with the increase in differentiation inducing compound BMP4. Similar results were obtained when other compounds were tested. […]
The versatility of transformed human pluripotent stem cells is illustrated by the multiple types of assays that it enables. […] Cells were loaded into a plate reader and measured at excitation emission pairs of 650/665 and 488/520 nm to measure Oct4-Alexa 647 antibody (FIG. 7 top graph) and GFP (FIG. 7 bottom graph) respectively. Pluripotency (measured by the loss of OCT4 and GFP expression) decreased with the increase in differentiation inducing compound BMP4. […]

[5] = tested on: transformed pluripotent stem cells that contain an Oct4-GFP reporter; assay: Microscope imaging of Oct4 antibody staining and GFP after BMP-4 treatment; assay type: cell-based, human; details: increased amounts of BMP-4, 4 days; microscope images
Description: Transformed pluripotent stem cells that contain an Oct4-GFP reporter were plated, cultured, treated with BMP-4 and fixed as described in FIG. 7. Cells were permeabilized with 0.1% TritonX-100 and stained with Oct4 antibody conjugated with Alexa 647. The cell nuclei were stained with Hoechst 33342. Images were collected using 10× objective on Olympus microscope, and analysed using Image-Pro Plus software.
Cells were permeabilized with 0.1% TritonX-100 and stained with Oct4 antibody conjugated with Alexa 647. The cell nuclei were stained with Hoechst 33342. Images were collected using 10× objective on Olympus microscope, and analysed using Image-Pro Plus software.

Row | Molecule | Induction of t-hPSC differentiation (GFP/Hoechst ratio below zero, the threshold defined by BMP4) [2] | Cell viability relative to control samples (0 μM) [3] | Frequency of Oct4+ cells (human iPS cells) | other results
1 | C[S+](C)[O-] [DMSO] |  |  |  | Oct4-GFP expression ([1]; DMSO 0%, 0.01%, 2% (v/v) for 4 consecutive days, imaged day 5): decreasing expression levels of GFP
2 | OC(c1cc(C(F)(F)F)nc2c(C(F)(F)F)cccc12)C1CCCCN1 (centres unmarked) [Mefloquine HCl] | potent inducers of t-hPSCs differentiation | did not reduce cell viability | decrease | 
3 | CSc1ccc2c(c1)N(CCC1CCCCN1C)c1ccccc1S2 (centres unmarked) [Thioridazine HCl] | potent inducers of t-hPSCs differentiation | did not reduce cell viability | decrease | 
4 | bone morphogenic protein 4 [BMP4] |  |  |  | Pluripotency (measured by the loss of OCT4 and GFP expression) [4]: decreased; GFP fluorescence (Oct4-GFP reporter) [5]: decreased GFP fluorescence; Oct-4 antibody staining [5]: decreased Oct-4 antibody staining; Oct4-GFP expression ([1]; BMP4 added at day 2 and 3, imaged day 4): significant loss of GFP expression
